Laboratory results taken from ChEMBL document CHEMBL1201862, “PubChem BioAssay data set” (2004).
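Briefly, cells in 96-well plates were exposed to five compound concentrations for 48 h, and endpoints were estimated by linear interpolation. Abbreviation: GI50, concentration required for 50% inhibition of growth.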 Active and inactive are the calls of the source. No stated cut-off is given here; in the data, active = GI50 up to about 1.1 µM and inactive = higher.

Tests used:
Assay in all cases: inhibition of tumour cell growth, NCI panel, 48 h
KM12 = system: KM12
A549 = system: A549
SF-295 = system: SF-295
SK-MEL-5 = system: SK-MEL-5
SK-MEL-2 = system: SK-MEL-2
TK-10 = system: TK-10
MDA-N = system: MDA-N
SNB-19 = system: SNB-19
MOLT-4 = system: MOLT-4
SNB-75 = system: SNB-75
MCF7 = system: MCF7
SF-539 = system: SF-539
A498 = system: A498
786-0 = system: 786-0
UACC-257 = system: UACC-257
CCRF-CEM = system: CCRF-CEM
SF-268 = system: SF-268
HT-29 = system: HT-29
BT-549 = system: BT-549

Structure (SMILES) | GI50 (KM12) | GI50 (A549) | GI50 (SF-295) | GI50 (SK-MEL-5) | GI50 (SK-MEL-2) | GI50 (TK-10) | GI50 (MDA-N) | GI50 (SNB-19) | GI50 (MOLT-4) | GI50 (SNB-75) | GI50 (MCF7) | GI50 (SF-539) | GI50 (A498) | GI50 (786-0) | GI50 (UACC-257) | GI50 (CCRF-CEM) | GI50 (SF-268) | GI50 (HT-29) | GI50 (BT-549)
CO[C@@](c1ccccc1)(c1nc(C#N)c(N)o1)C(F)(F)F | > 100 µM (inactive) | > 100 µM (inactive) | > 100 µM (inactive) | > 100 µM (inactive) | > 100 µM (inactive) | > 100 µM (inactive) | > 100 µM (inactive) | > 100 µM (inactive) | 82.2 µM (inactive) | 20.5 µM (inactive) | > 100 µM (inactive) | > 100 µM (inactive) | > 100 µM (inactive) | > 100 µM (inactive) | 85.5 µM (inactive) | 26.5 µM (inactive) | – | – | –
CC1C/C(=C\c2ccc(OC(=O)C(C)(C)C)cc2)C(=O)/C(=C/c2ccc(OC(=O)C(C)(C)C)cc2)C1 (centres undefined) | 26.2 µM (inactive) | 40.6 µM (inactive) | 81.5 µM (inactive) | 57.3 µM (inactive) | 61 µM (inactive) | > 100 µM (inactive) | 30.5 µM (inactive) | > 100 µM (inactive) | 7.66 µM (inactive) | – | 45.5 µM (inactive) | 39.5 µM (inactive) | 33.6 µM (inactive) | 54.3 µM (inactive) | > 100 µM (inactive) | 2.34 µM (inactive) | 87.7 µM (inactive) | > 100 µM (inactive) | –
O=C1C(Cl)=C(N2CCN(CCOCCO)CC2)C(=O)c2ncccc21 | > 10 µM (inactive) | > 10 µM (inactive) | > 10 µM (inactive) | > 10 µM (inactive) | > 10 µM (inactive) | > 10 µM (inactive) | – | > 10 µM (inactive) | > 10 µM (inactive) | > 10 µM (inactive) | > 10 µM (inactive) | > 10 µM (inactive) | > 10 µM (inactive) | > 10 µM (inactive) | > 10 µM (inactive) | 0.001 µM (active) | > 10 µM (inactive) | > 10 µM (inactive) | > 10 µM (inactive)
COc1c(OC)c(OC)c(-c2cc(=O)c3c(OC)c(OC)c(OC)c(OC)c3o2)c(OC)c1OC | – | 35 µM (inactive) | 40.2 µM (inactive) | 24.2 µM (inactive) | 56.6 µM (inactive) | 29.3 µM (inactive) | 38 µM (inactive) | 51.9 µM (inactive) | 32.7 µM (inactive) | 57.5 µM (inactive) | – | 48.9 µM (inactive) | 31.3 µM (inactive) | 21.5 µM (inactive) | 34.5 µM (inactive) | 34 µM (inactive) | 69.5 µM (inactive) | 28.8 µM (inactive) | 34.5 µM (inactive)
OC(C/C(=N\N1CCCCC1)c1cccs1)(C(F)(F)F)C(F)(F)F | > 10 µM (inactive) | > 10 µM (inactive) | > 10 µM (inactive) | > 10 µM (inactive) | > 10 µM (inactive) | > 10 µM (inactive) | > 10 µM (inactive) | > 10 µM (inactive) | > 10 µM (inactive) | > 10 µM (inactive) | > 10 µM (inactive) | > 10 µM (inactive) | > 10 µM (inactive) | > 10 µM (inactive) | > 10 µM (inactive) | > 10 µM (inactive) | > 10 µM (inactive) | > 10 µM (inactive) | –
Cc1c(C)c2c(c(N)c1C#N)C(=O)N(O)C2=O | > 100 µM (inactive) | > 100 µM (inactive) | > 100 µM (inactive) | > 100 µM (inactive) | > 100 µM (inactive) | > 100 µM (inactive) | – | > 100 µM (inactive) | > 100 µM (inactive) | 45.2 µM (inactive) | > 100 µM (inactive) | > 100 µM (inactive) | > 100 µM (inactive) | > 100 µM (inactive) | > 100 µM (inactive) | > 100 µM (inactive) | > 100 µM (inactive) | > 100 µM (inactive) | > 100 µM (inactive)
CCOC(=O)C(C(=O)OCC)C(=O)c1ccccc1C(=O)c1ccccc1 | > 100 µM (inactive) | > 100 µM (inactive) | > 100 µM (inactive) | 97.1 µM (inactive) | > 100 µM (inactive) | > 100 µM (inactive) | – | > 100 µM (inactive) | 23.4 µM (inactive) | > 100 µM (inactive) | > 100 µM (inactive) | > 100 µM (inactive) | > 100 µM (inactive) | > 100 µM (inactive) | > 100 µM (inactive) | 96.2 µM (inactive) | > 100 µM (inactive) | 28.4 µM (inactive) | 33.4 µM (inactive)
COc1ccc(OC)c(/C=C/c2cnnc3ccccc23)c1 | 2.8 µM (inactive) | 3.27 µM (inactive) | 5.4 µM (inactive) | 3.61 µM (inactive) | 2.16 µM (inactive) | > 10 µM (inactive) | 0.741 µM (active) | 6.46 µM (inactive) | 2.65 µM (inactive) | 4.19 µM (inactive) | 1.85 µM (inactive) | 2.39 µM (inactive) | – | 6.67 µM (inactive) | 3.39 µM (inactive) | 3.38 µM (inactive) | 4.79 µM (inactive) | 5.31 µM (inactive) | –
